Active and inactive are the calls of the source.
Columns and labels:
[1] = target: Heat shock protein HSP 90-alpha (Homo sapiens, UniProt P07900); type: functional, organism-based
Phospholipase A2 = Phospholipase A2 (Homo sapiens, UniProt P04054); type: functional;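 further: confirmatory dose-response counterscreen on phospholipase A2, testing hits that came from an ultra-high-throughput screen for ATG4B inhibitors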
Genome polyprotein = Genome polyprotein (dengue virus type 2, UniProt P29990); experiment: Dengue-2 NS5 methyltransferase inhibitors, primary screen, biochemical, confirmation dose response (AID 588689); type: functional
[2] = target: Peroxisome proliferator-activated receptor gamma/Nuclear receptor coactivator 1 (Homo sapiens, UniProt P37231); experiment: (§1) TR-FRET dose response biochemical High Throughput Screening assay for agonists of the steroid receptor coactivator 1 (SRC-1) recruitment by the peroxisome proliferator-activated receptor gamma (PPAR gamma): non-selective agonists. [Related pubchem assays (depositor defined):AID1300, AID1808, AID504735, AID631]; type: protein assay
[3] = target: Peroxisome proliferator-activated receptor gamma/Nuclear receptor coactivator 3 (Homo sapiens, UniProt P37231); experiment: as §1, with “3 (SRC-3)” for “1 (SRC-1)”, “assays: 1301 (Confirmation screen.), 1048 (Primary screen.)]” for “assays (depositor defined):AID1300, AID1808, AID504735, AID631]”; type: functional
[4] = target: Peroxisome proliferator-activated receptor gamma/Nuclear receptor coactivator 2 (Homo sapiens, UniProt P37231); experiment: TR-FRET dose response biochemical High Throughput Screening assay for agonists of the steroid receptor coactivator 2 (SRC-2) recruitment by the peroxisome proliferator-activated receptor gamma (PPAR gamma): non-selective agonists. [Related pubchem assays: 1297, 1032 ]; type: functional
[5] = cytotoxicity in HEK-293T cells, dose response, cytotoxicity control for BCR NF-kB inhibitor project, luminescence, B-cell screen hits (AID 489021); type: functional, cell-based;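 further: HEK-293T cells carrying an NF-kB luciferase reporter; cells exposed to compound for about 14 hours before viability readout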
[6] = target: T1, Replicative DNA helicase DnaB (Mycobacterium tuberculosis, UniProt P9WMR3); experiment: DnaB intein splicing inhibitors, dose response, biochemical, cell-free fluorescence (AID 449749); type: functional
T1 sequence (P9WMR3 whole entry): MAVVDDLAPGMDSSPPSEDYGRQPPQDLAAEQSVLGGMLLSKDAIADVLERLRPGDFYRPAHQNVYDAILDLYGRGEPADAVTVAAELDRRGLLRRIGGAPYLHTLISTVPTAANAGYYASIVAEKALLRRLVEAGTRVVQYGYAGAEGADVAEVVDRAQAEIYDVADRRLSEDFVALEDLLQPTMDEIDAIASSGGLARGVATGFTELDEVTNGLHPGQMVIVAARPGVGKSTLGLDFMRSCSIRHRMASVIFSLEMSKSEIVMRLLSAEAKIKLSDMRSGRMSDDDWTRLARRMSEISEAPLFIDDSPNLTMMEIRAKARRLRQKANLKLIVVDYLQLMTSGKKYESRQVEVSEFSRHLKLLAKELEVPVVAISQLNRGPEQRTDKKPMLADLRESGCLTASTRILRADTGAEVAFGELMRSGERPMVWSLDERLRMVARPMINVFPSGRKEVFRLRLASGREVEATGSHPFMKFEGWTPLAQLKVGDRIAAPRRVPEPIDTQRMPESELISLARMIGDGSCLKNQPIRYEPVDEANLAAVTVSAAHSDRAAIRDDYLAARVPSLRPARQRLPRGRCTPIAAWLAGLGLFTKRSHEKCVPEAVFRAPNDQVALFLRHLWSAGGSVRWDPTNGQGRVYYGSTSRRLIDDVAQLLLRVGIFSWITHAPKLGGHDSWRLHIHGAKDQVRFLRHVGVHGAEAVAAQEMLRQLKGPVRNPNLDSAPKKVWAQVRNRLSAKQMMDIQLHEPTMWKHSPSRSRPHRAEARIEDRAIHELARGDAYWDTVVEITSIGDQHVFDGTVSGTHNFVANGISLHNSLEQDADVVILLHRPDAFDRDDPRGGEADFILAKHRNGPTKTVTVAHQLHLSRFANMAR

Protein RecA = target: T2, Protein RecA (Mycobacterium tuberculosis, UniProt P9WHJ3); experiment: Fluorescence Cell-Free Homogeneous Dose Retest to Identify Inhibitors of RecA-Intein Splicing Activity. [Related pubchem assays (depositor defined):AID2097, AID2223, AID489010, AID492950]; type: functional
T2 sequence (P9WHJ3 whole entry): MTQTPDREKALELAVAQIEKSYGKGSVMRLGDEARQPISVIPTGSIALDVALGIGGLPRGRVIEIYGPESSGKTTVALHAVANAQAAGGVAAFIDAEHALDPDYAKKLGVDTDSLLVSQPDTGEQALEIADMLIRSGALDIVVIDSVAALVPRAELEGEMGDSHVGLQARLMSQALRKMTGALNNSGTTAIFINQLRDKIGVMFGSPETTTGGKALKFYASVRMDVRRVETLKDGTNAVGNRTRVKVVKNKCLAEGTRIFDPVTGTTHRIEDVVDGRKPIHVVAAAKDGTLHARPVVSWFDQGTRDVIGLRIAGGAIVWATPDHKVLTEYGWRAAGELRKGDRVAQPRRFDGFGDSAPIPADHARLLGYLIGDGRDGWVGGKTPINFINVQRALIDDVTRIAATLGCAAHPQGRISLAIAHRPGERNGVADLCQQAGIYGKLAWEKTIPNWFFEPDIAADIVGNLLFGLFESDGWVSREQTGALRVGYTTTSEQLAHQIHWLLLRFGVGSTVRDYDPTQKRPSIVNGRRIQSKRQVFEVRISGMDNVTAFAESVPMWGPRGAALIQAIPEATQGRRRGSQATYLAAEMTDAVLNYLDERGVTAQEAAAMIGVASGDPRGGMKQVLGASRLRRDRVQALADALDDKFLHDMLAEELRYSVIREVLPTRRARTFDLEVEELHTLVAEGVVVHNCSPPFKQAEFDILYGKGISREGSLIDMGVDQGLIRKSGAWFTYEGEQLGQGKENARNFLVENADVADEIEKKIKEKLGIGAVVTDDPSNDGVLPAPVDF

Nonstructural protein 1 = Nonstructural protein 1 (Influenza A virus, UniProt Q194T2); type: functional, Influenza A virus (A/California/07/2009(H1N1))
[7] = target: T3, High affinity choline transporter 1 (Homo sapiens, UniProt Q9GZV3); experiment: CHT inhibitors, dose response, cell-based, 5-point CRC, membrane potential dye (AID 504840); type: functional
T3 sequence (Q9GZV3 whole entry): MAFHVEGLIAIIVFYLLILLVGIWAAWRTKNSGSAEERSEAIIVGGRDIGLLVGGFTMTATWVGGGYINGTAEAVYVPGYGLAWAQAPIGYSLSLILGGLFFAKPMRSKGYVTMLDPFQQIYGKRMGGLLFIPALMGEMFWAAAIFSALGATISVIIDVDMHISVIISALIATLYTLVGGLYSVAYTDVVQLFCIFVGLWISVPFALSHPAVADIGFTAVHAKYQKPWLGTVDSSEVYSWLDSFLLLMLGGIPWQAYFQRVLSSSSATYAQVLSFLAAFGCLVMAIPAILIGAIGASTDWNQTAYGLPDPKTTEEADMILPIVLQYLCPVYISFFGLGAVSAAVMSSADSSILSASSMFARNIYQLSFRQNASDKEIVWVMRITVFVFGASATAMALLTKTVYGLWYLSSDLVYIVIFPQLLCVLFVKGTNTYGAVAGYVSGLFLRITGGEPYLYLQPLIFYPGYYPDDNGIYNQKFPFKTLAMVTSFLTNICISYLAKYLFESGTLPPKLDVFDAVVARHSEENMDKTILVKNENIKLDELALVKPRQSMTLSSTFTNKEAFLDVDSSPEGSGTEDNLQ

[8] = target: 26S proteasome non-ATPase regulatory subunit 14 (Homo sapiens, UniProt O00487); experiment: inhibition of proteasome subunit RPN11 – biochemical, fluorescence polarization, uHTS hits, confirmation (AID 602368); type: functional
[9] = target: 72 kDa type IV collagenase (Homo sapiens, UniProt P08253); experiment: Dose Response validation of uHTS RPN11 inhibitor hits using a MMP-2 Fluorescence assay.; type: functional
Prothrombin = Prothrombin (Bos taurus, UniProt P00735); experiment: thrombin inhibition, dose response, biochemical, fluorescence polarization, uHTS hits (AID 602369); type: functional
[10] = target: T4, RNA-binding protein pos-1 (Caenorhabditis elegans, UniProt G5EF15); experiment: inhibitors of POS-1/mex-3 RNA binding, dose response, biochemical, fluorescence polarization (AID 1964);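 further: purified POS-1 fused to maltose binding protein made in E. coli; potency of compounds blocking POS-1 binding to fluorescent RNA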
T4 sequence (G5EF15 whole entry): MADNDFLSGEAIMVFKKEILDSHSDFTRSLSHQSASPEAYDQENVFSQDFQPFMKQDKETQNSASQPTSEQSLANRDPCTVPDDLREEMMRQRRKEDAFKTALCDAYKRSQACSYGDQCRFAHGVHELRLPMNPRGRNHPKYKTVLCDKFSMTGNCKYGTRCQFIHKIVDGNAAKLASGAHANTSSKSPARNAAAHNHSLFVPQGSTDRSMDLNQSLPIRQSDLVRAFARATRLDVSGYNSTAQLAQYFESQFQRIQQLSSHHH

[11] = target: T5, Zinc finger protein mex-5 (Caenorhabditis elegans, UniProt Q9XUB2); experiment: MEX-5/TCR-2 RNA interaction inhibitors, dose response, biochemical, C. elegans, fluorescence polarization (AID 1960)
T5 sequence (Q9XUB2 whole entry): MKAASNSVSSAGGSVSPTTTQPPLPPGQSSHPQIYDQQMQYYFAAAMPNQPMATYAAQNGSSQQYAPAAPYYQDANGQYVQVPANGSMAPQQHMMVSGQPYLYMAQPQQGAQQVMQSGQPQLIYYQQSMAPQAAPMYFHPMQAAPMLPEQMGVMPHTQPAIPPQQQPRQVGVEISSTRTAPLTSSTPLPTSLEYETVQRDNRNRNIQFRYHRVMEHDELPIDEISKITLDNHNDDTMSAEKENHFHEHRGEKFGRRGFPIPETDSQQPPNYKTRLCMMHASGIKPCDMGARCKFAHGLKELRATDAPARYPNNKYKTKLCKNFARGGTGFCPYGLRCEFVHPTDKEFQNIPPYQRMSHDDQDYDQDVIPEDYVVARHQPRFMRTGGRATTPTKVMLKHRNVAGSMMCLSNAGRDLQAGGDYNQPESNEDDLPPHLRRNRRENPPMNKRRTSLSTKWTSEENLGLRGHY

[12] = target: T6, Heat shock factor protein 1 (Mus musculus, UniProt P38532); experiment: inhibition of MG132-induced HSE-luciferase signal, confirmation, cell-based, NIH3T3, luminescence, dose retest (AID 2382); type: functional;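 further: NIH3T3 fibroblasts with HSF1-driven luciferase reporter stressed by proteasome inhibitor MG132; luminescence from HSF1-driven luciferase expression after 8 hours of MG132 stress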
T6 sequence (P38532 whole entry): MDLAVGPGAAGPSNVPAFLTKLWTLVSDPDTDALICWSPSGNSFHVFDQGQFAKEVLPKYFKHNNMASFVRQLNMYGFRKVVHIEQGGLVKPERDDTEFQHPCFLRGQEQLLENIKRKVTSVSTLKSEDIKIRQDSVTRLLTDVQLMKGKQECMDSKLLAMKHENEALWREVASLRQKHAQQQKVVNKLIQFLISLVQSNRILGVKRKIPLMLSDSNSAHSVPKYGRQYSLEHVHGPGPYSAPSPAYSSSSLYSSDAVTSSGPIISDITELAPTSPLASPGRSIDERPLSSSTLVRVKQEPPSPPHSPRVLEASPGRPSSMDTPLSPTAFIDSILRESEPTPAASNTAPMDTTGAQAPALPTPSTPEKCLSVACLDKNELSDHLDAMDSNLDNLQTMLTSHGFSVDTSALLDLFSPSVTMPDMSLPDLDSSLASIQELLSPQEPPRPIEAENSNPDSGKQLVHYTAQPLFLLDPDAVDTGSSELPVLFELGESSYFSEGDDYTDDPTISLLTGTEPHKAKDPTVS

[13] = StAR promoter reporter inhibition counter-screen, dose response, counter-screen for LRH-1 inverse agonist project, cell-based, luminescence, luciferase reporter (AID 651969); type: functional
[14] = target: T7, Carboxy-terminal domain RNA polymerase II polypeptide A small phosphatase 1 (Homo sapiens, UniProt Q9GZU7); experiment: inhibitors of CTDSP1, concentration-response testing, biochemical assay, absorbance-based, actives from ultra-high-throughput screening (AID 540297); type: functional
T7 sequence (Q9GZU7 whole entry): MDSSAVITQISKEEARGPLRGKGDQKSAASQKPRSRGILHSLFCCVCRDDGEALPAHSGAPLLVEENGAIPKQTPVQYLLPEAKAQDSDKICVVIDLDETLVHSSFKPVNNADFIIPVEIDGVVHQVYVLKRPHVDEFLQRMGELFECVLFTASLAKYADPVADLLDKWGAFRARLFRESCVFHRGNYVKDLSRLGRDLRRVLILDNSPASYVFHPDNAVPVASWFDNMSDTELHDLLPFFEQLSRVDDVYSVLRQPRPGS

Chain of 26S proteasome non-ATPase regulatory subunit 14 (O00487 whole entry): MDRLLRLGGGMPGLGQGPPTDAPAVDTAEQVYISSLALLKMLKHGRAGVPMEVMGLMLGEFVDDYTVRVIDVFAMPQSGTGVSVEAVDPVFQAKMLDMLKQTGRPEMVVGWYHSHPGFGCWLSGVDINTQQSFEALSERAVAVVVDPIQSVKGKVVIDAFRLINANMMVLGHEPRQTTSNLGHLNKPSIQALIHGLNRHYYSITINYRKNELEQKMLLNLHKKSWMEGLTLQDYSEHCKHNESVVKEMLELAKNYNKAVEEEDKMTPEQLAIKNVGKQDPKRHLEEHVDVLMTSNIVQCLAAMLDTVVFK
Chain of 72 kDa type IV collagenase (P08253 whole entry): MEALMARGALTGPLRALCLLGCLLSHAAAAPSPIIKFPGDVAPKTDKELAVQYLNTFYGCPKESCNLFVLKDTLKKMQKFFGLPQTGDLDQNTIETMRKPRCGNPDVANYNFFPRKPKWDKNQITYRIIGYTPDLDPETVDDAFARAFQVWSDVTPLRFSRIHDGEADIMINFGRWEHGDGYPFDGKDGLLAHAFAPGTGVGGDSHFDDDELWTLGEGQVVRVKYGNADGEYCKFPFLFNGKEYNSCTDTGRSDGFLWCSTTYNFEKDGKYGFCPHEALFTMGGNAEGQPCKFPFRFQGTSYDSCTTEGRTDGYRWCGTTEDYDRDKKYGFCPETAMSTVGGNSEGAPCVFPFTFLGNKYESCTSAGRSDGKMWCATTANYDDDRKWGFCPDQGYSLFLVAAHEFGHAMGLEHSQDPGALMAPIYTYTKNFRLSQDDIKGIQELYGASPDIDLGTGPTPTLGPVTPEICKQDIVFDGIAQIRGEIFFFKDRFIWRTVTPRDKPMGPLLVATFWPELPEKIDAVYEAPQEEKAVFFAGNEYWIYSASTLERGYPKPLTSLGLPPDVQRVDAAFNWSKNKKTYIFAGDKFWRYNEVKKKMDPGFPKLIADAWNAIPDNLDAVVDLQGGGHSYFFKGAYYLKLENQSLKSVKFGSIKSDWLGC
Chain of Genome polyprotein (P29990 2492-3391 limits assumed): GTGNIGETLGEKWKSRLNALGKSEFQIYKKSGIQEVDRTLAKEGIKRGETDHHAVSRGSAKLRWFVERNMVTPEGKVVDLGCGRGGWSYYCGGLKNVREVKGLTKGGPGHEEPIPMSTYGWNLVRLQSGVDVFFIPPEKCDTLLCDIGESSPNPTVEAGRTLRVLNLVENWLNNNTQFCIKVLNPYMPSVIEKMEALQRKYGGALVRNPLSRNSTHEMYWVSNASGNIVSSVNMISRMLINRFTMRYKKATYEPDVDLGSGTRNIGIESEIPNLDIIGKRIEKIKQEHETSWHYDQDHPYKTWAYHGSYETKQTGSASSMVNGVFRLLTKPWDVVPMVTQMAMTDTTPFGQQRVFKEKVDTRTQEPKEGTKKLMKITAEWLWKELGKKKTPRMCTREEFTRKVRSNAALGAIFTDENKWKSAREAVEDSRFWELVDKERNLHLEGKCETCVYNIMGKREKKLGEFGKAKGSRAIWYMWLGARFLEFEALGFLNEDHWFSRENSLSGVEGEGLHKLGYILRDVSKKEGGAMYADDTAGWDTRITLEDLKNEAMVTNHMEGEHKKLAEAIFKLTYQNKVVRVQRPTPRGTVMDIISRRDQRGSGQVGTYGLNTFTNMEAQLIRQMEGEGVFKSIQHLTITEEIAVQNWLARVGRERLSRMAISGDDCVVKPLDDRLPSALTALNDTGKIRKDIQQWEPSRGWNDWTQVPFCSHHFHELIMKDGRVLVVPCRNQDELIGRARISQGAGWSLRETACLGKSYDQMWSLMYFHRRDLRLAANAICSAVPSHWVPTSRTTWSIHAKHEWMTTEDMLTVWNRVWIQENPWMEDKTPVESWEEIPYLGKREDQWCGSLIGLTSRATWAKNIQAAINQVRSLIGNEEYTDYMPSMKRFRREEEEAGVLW
Chain of Peroxisome proliferator-activated receptor gamma/Nuclear receptor coactivator 1 (P37231 whole entry): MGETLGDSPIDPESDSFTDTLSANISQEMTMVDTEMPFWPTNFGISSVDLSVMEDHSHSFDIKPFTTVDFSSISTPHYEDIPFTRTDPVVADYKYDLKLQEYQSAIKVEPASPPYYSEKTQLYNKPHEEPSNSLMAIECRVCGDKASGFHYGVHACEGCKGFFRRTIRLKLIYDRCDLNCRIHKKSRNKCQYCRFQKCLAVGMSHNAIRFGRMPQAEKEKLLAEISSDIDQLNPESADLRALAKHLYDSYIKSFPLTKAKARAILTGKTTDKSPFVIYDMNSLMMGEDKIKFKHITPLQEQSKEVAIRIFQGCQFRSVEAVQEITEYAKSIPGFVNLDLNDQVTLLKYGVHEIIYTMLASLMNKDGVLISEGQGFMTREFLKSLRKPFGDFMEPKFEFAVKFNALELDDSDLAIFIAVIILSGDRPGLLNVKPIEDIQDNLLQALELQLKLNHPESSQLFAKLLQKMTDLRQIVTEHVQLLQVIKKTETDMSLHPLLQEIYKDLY
Chain of Peroxisome proliferator-activated receptor gamma/Nuclear receptor coactivator 1 (Q15788 whole entry, further chain): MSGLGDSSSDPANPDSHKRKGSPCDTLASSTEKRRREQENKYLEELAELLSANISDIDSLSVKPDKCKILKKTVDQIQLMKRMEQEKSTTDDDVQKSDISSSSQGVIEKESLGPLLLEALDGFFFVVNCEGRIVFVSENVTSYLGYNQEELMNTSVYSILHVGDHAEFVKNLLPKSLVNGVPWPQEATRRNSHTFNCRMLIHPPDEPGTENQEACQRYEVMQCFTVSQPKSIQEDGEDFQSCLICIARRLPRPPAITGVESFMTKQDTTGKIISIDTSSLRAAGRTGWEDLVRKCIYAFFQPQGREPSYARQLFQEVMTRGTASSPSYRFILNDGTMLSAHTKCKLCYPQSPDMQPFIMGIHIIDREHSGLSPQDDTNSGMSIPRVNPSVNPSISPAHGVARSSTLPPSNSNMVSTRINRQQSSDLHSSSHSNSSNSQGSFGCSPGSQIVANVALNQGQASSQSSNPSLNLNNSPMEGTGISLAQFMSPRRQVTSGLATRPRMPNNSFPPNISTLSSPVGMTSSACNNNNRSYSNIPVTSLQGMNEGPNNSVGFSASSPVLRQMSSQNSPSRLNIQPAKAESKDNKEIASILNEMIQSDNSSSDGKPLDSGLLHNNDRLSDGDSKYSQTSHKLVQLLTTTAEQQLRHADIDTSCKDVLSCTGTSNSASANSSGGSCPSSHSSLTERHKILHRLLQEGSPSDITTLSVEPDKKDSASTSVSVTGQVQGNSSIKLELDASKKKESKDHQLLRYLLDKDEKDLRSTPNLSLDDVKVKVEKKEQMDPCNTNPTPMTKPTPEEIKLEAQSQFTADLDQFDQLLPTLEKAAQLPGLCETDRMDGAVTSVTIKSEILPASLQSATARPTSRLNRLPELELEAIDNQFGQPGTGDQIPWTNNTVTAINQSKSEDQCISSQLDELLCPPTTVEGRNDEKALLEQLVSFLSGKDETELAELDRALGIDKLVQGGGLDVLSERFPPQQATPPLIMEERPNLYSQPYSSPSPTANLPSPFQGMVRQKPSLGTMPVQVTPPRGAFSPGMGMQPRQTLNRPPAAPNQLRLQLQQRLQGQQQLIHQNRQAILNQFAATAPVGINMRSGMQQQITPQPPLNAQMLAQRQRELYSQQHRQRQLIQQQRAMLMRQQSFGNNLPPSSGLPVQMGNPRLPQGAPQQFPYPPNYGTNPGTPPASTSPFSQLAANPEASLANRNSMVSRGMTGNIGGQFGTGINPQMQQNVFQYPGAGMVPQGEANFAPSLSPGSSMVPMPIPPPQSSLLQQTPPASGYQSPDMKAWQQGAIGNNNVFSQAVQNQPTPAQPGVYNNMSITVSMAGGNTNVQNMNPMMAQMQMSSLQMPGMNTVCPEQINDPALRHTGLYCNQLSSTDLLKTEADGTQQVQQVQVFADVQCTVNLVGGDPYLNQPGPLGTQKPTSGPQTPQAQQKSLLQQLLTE
Chain of Nonstructural protein 1 (Q194T2 whole entry): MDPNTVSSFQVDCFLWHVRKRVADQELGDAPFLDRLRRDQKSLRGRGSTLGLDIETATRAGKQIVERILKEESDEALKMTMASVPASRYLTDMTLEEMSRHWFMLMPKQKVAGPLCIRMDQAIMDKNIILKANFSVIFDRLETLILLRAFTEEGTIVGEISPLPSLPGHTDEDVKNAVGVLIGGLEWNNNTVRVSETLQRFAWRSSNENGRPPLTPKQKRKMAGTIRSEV
Chain of Phospholipase A2 (P04054 whole entry): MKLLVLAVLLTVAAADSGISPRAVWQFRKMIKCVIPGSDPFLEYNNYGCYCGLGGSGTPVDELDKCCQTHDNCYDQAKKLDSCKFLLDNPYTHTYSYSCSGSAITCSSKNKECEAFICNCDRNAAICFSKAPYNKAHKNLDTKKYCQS

## CCCOc1ccc2ccccc2c1/C=C1\SC(=O)NC1=O
[1]
  AC50: 6.89 µM (active)
Phospholipase A2
  IC50: 15.9 µM (active)

## COc1cc(/C=C2/C(=O)NC(=O)N(c3ccccc3)C2=O)ccc1O
Genome polyprotein
  IC50: > 100 µM (active)

## CCn1c(=O)cc(SCC(=O)N2CCOCC2)c2ccccc21
[2]
  EC50: > 79.4 µM (inactive)
[3]
  EC50: > 79.4 µM (not active)
[4]
  EC50: > 79.4 µM (not active)
[5]
  IC50: > 80 µM (inactive)

## CCOc1c(Br)cc(/C=C2\C(=O)N(CCC#N)N=C2C)cc1OC
[6]
  AC50: 3.43 µM (active)
Protein RecA
  EC50: 1.8 µM (active)
Genome polyprotein
  IC50: > 100 µM (active)

## COc1cc(/C=C2/C(=O)N(c3cccc(Br)c3)N=C2C)cc(OC)c1O
Nonstructural protein 1
  IC50: 14.5 µM (active)
[6]
  AC50: 3.93 µM (active)
[7]
  IC50: 13.8 µM (active)
Protein RecA
  EC50: 1.6 µM (active)
[8]
  IC50: 23.1 µM (active)
[9]
  IC50: > 100 µM (inactive)
Prothrombin
  IC50: 39 µM (active)

## Cc1ccc(N2C(=O)NC(=O)/C(=C\c3cc(C)n(-c4ccc(C(=O)O)cc4)c3C)C2=O)cc1
[10]
  EC50: > 300 µM (not active)
[11]
  EC50: 6.96 µM (active)
Genome polyprotein
  IC50: > 100 µM (active)

## COc1ccc(CNC(=O)c2nnn(CC(=O)Nc3cc(C)cc(C)c3)c2N)cc1
[12]
  EC50: > 195 µM (not active)
[8]
  IC50: 18.9 µM (active)
[9]
  IC50: > 100 µM (inactive)
Prothrombin
  IC50: 63 µM (active)

## COc1ccc(NC(=O)CSc2sc3c(O)cc(O)nc3c2C#N)c(OC)c1
[13]
  IC50: 35.9 µM (inactive)

## COc1ccccc1-c1nnc(S)o1
[2]
  EC50: 59.1 µM (inactive)
[3]
  EC50: > 79.4 µM (not active)
[4]
  EC50: 11.9 µM (not active)

## O=C(O)c1cc(/C=C/C(=O)c2cc(F)ccc2O)c2c(c1)COCO2
Genome polyprotein
  IC50: > 100 µM (active)

## CSc1ccc(NC(=O)CSc2nc3[nH]c(=O)cc(O)c3s2)cc1
[14]
  IC50: 4.06 µM (active)
[8]
  IC50: 68 µM (active)
[9]
  IC50: 40.4 µM (active)
Prothrombin
  IC50: 88.3 µM (active)

Source: ChEMBL document CHEMBL1201862, “PubChem BioAssay data set” (2004)
